Source: PubChem BioAssay (NCI)
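Test compounds were applied to cells in 96-well plates for 48 hours at 5 doses. TGI marks complete inhibition of growth.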

What was measured:
Assay in all cases: NCI tumour cell line growth inhibition, 48 h
HCT-15 colon = system: HCT-15 colon
MALME-3M melanoma = system: MALME-3M melanoma
MCF7 breast = system: MCF7 breast
NCI-H226 lung = system: NCI-H226 lung
NCI-H522 lung = system: NCI-H522 lung
RXF 393 renal = system: RXF 393 renal
SF-268 CNS = system: SF-268 CNS
UO-31 renal = system: UO-31 renal
MDA-MB-231 breast = system: MDA-MB-231 breast
TK-10 renal = system: TK-10 renal

Structure (SMILES) | TGI (HCT-15 colon) [µM] | TGI (MALME-3M melanoma) [µM] | TGI (MCF7 breast) [µM] | TGI (NCI-H226 lung) [µM] | TGI (NCI-H522 lung) [µM] | TGI (RXF 393 renal) [µM] | TGI (SF-268 CNS) [µM] | TGI (UO-31 renal) [µM] | TGI (MDA-MB-231 breast) [µM] | TGI (TK-10 renal) [µM]
C=C1C(=O)C[C@@]23CCC[C@@]12CC(O)C3 (stereo not given in full) | 28.8 | 18.3 | 33.6 | 45.8 | 7.55 | 33.8 | > 100 | > 94.6 | – | –
CSc1nc(Br)nc2c1ncn2C1CC(Oc2ccc(C)cc2)C(COc2ccc(C)cc2)O1 (stereo not given) | > 100 | > 100 | > 100 | > 100 | > 100 | – | > 100 | – | > 100 | > 100
CNC(=O)OCC1=C(COC(=O)NC)CN(c2ccccc2)C1 | > 100 | > 100 | > 100 | > 100 | – | > 100 | > 100 | > 100 | > 100 | > 100
COC1=CC2(C=CC1=O)CCN=c1c(O)c3c(c(O)c12)=NC=N3 (stereo not given) | > 100 | > 100 | > 100 | – | > 100 | > 100 | > 100 | > 100 | > 100 | > 100
CC(=O)OCC1OC(n2c3c(c(-c4ccco4)c(C#N)c2=S)CCCC3)C(OC(C)=O)C(OC(C)=O)C1OC(C)=O (stereo not given) | > 31.6 | > 31.6 | > 100 | > 31.6 | > 31.6 | – | > 31.6 | > 31.6 | > 31.6 | 24.8
COc1cc2cc3c4c(cc(OC)c(OC)c4c2cc1OC)CCN3C(=O)OCCBr | > 100 | > 100 | – | 2.42 | > 100 | > 100 | > 100 | > 100 | – | > 100
O=C(O)c1ccc(Nc2cnc3ccc(C(F)(F)F)cc3n2)cc1 | 36.8 | > 100 | > 100 | 29.4 | – | 35.3 | > 100 | 27.5 | 36.9 | 44.8
Cc1ccc(Nc2nnc3n2S(=O)(=O)c2cc(C)c(Cl)cc2S3)cc1 | 51.3 | – | > 100 | 37.4 | 5.66 | 49.1 | 18.4 | 81.3 | 82.4 | > 100
COc1cc2c(c(OC)c1OC)-c1ccc(SC)c(=O)cc1[C@@H](NC(=O)c1ccc(C#N)cc1)CC2 | > 100 | 96.9 | – | < 0.01 | < 0.01 | – | > 48.7 | > 100 | – | > 100
CCN(CC)c1ccc(C(=C2C=CC(=[N+](CC)CC)C=C2)c2ccccc2)cc1 | 0.587 | 0.0902 | – | 0.0683 | 0.143 | 0.0989 | 0.195 | 0.185 | – | –
C=CCOn1c(C=C)nc2c(C)cccc21 | 13.9 | 28 | 12.5 | 16.9 | 4.87 | – | 26.5 | 6.03 | 14.8 | 8.05
COc1cc([C@@H]2c3cc4c(cc3[C@@H](Nc3ccc(Cl)cc3C(=O)c3ccccc3Cl)[C@H]3COC(=O)[C@H]23)OCO4)cc(OC)c1OC | – | > 100 | > 100 | – | 0.237 | > 75.3 | > 100 | > 100 | > 100 | > 100
COc1ccccc1OC/C(N=Cc1ccncc1)=N/NC(=O)c1ccncc1 | > 100 | > 100 | > 100 | > 100 | > 100 | > 100 | > 100 | – | > 100 | > 100
CCCCCCCC(CC(=O)O)OC(=O)CC(CCCCCCC)OC1OC(C)C(O)C(O)C1OC1OC(C)C(O)C(O)C1O (stereo not given) | > 100 | > 100 | > 100 | > 100 | > 100 | – | > 100 | > 100 | > 100 | –
BrCC[P+](c1ccccc1)(c1ccccc1)c1ccccc1 | > 100 | – | 30.5 | – | – | 8.02 | 8.25 | 22.8 | 34.8 | 34.5
CC1=CC(c2ccccc2)n2c(nc3cc4ccccc4cc32)N1 (stereo not given) | > 100 | > 100 | > 100 | > 100 | – | > 100 | > 100 | > 100 | > 100 | > 100
COC1(OC)/C(=C(\N)C=O)NC(C)(C)N1O | – | > 100 | > 100 | > 100 | > 100 | > 100 | – | > 100 | > 100 | –
COC(=O)c1ccc(OCc2ccc3nc(-c4ccccc4)c(Cl)nc3c2)cc1 | > 100 | – | > 100 | – | 45.7 | – | > 100 | > 100 | 60.2 | > 100
CCOc1ccc(NC(=S)/N=C/C(C(=O)Nc2ccccc2C)=C(\C)O)cc1 | > 100 | – | > 100 | > 100 | > 100 | > 100 | > 100 | > 100 | > 100 | > 100
COC(=O)C1(Cc2ccccc2)Cc2ccccc2C1=O (stereo not given) | > 100 | 39.3 | > 100 | > 100 | – | – | > 100 | > 100 | > 100 | > 100
CCOc1cc(C=O)ccc1O | > 100 | > 100 | > 100 | > 100 | > 100 | – | > 100 | > 100 | > 100 | > 100
Cc1c(-c2coc(-c3ccc(Cl)cc3)n2)c(=O)n(-c2ccccc2)n1C | > 100 | > 100 | – | > 100 | > 100 | – | > 100 | > 100 | – | > 100
C/C=C\C(CC(=O)O)CC(=O)NCCC1CN(S(=O)(=O)C(F)(F)F)c2ccccc21 (stereo not given) | > 100 | > 100 | > 100 | – | > 100 | > 100 | > 100 | > 100 | > 100 | –
CC(=O)Nc1ccc(C(=O)N2N=C(C)/C(=C/c3cccc(O)c3)C2=O)cc1 | > 100 | > 100 | – | > 100 | > 100 | – | > 100 | > 100 | – | > 100
